The source of these data is ChEMBL document CHEMBL3272053, “(exo, exo)-2-Aryltropane-3-carboxylic esters, hypoglycemic agents with accompanying analgesic activity” (J Med Chem, 1978).

Data set [1] relates to Rattus norvegicus. In words: Hypoglycemic activity in Sprague-Dawley rat assessed as reduction of blood glucose level at 64 mg/kg, po by glucagon-impaired glucose disposal test relative to control. Details: scale not given: the % may be the effect or the level left. The format is functional.
Data set [2] has as its system Rattus norvegicus. In words: Toxicity in Sprague-Dawley rat assessed as tremor at 60 mg/kg, sc. The conditions noted are these: in vivo. The format is organism-based. Also on record: dose 60 mg/kg, route subcutaneous.
A further data set relates to Mus musculus. In words: Analgesic activity in sc dosed Swiss-Webster mouse assessed as reduction of acetylcholine-induced writhing. The format is functional. The conditions noted are these: Mus musculus, Swiss-Webster, sc; read-out: ED50.
Data set [3] has as its system Rattus norvegicus. Briefly: Narcotic analgesic activity in fed Sprague-Dawley rat at 60 mg/kg, sc measured at 30 mins by D'Amour-Smith tail-flick test. The format is functional. The conditions noted are these: route subcutaneous. On the technique in general: Thermal pain tests record how soon the animal reacts.
In data set [4] the test system is Rattus norvegicus. In words: Toxicity in Sprague-Dawley rat assessed as convulsion at 60 mg/kg, sc. The format is organism-based. Details: dose 60 mg/kg, route subcutaneous. To be noted: in vivo.
Data set [5] deals with Rattus norvegicus. In words: Toxicity in Sprague-Dawley rat assessed as hyperactivity at 2.5 mg/kg, sc. The format is organism-based. Also on record: dose 2.5 mg/kg, route subcutaneous. The conditions noted are these: in vivo.
Data set [6] deals with Rattus norvegicus. In words: Narcotic antagonist activity in sc dosed fed Sprague-Dawley rat assessed as concentration required to decrease phenazocine-induced analgesic activity by 50%. The format is functional.

One may read the ED50 as the dose at which the effect has come halfway, by size or by number of responders. `COC(=O)[C@H]1C[C@H]2CC[C@H]([C@H]1c1ccccc1)N2CC1CC1.Cc1ccc(S(=O)(=O)O)cc1`: the Activity in the data set on Rattus norvegicus [1] was 20%; with Rattus norvegicus [2] it was “Toxic”; with Rattus norvegicus [3], less than 20%; in the data set with Rattus norvegicus [4] it was “Toxic”; with Rattus norvegicus [5], “Toxic”; in the data set with Rattus norvegicus [6] it was 4.7 mg/kg. Moreover, in the data set with Mus musculus, the ED50 is 16 mg/kg.
